Results on 32 compounds are retold here after ChEMBL document CHEMBL4732133 (Eur J Med Chem, 2021).

The structures appear in SMILES notation. Bounds are passed on as bounds.

Assay [1] is described as follows: Inhibition of Influenza A virus (A/Chicken/Hebei/UR/2014(H5N2)) neuraminidase using 4-MU-NANA as substrate preincubated for 5 mins followed by substrate addition and measured after 30 to 60 mins by fluorescence assay.
A short description of assay [2]: Inhibition of Influenza A virus (A/Puerto Rico/8/1934(H1N1)) neuraminidase using 4-MU-NANA as substrate preincubated for 5 mins followed by substrate addition and measured after 30 to 60 mins by fluorescence assay.
Assay [3] in a line: Inhibition of Influenza A virus (A/Babol/36/2005 (H3N2)) neuraminidase using 4-MU-NANA as substrate preincubated for 5 mins followed by substrate addition and measured after 30 to 60 mins by fluorescence assay.
Assay [4] can be described thus: Inhibition of Influenza A virus (A/goose/Guangdong/SH7/2013(H5N1)) neuraminidase using 4-MU-NANA as substrate preincubated for 5 mins followed by substrate addition and measured after 30 to 60 mins by fluorescence assay. Set-up: species or system H5N1 subtype.
Assay [5] can be described thus: Inhibition of Influenza A virus (A/California/04/2009(H1N1)) neuraminidase using 4-MU-NANA as substrate preincubated for 5 mins followed by substrate addition and measured after 30 to 60 mins by fluorescence assay.

With `CCC(CC)O[C@@H]1C=C(C(=O)O)C[C@H](NCc2ccc(Oc3ccc(C)cc3)cc2)[C@H]1NC(C)=O`, the 50% inhibitory concentration (IC50) (usually the concentration that inhibits the measured activity by half) is 19.2 µM in assay [1]; 6.74 µM in assay [2]; 20.8 µM in assay [3]; 3.36 µM in assay [4]; 12.4 µM in assay [5].
For `CCC(CC)O[C@@H]1C=C(C(=O)O)C[C@H](NCc2ccc(/C=C/c3ccccc3)cc2)[C@H]1NC(C)=O` the same measures were 10.6 µM, 0.69 µM, 4.78 µM, 0.26 µM and 0.44 µM.
For `CCC(CC)O[C@@H]1C=C(C(=O)O)C[C@H](NCc2ccc(OCc3cccc(C#N)c3)cc2)[C@H]1NC(C)=O` the same measures were 27 µM, 1.46 µM, 22.2 µM, 0.34 µM and 2.56 µM.
Regarding `CCC(CC)O[C@@H]1C=C(C(=O)O)C[C@H](NCc2ccc(OCc3ccc(OC)cc3)cc2)[C@H]1NC(C)=O`, the IC50 in assay [1] is 34.4 µM; in assay [2], 1.62 µM; in assay [3] it was 26.7 µM; in assay [4], 0.73 µM; in assay [5], 0.9 µM.
For `CCC(CC)O[C@@H]1C=C(C(=O)O)C[C@H](NCc2ccc(NCc3ccccc3)cc2)[C@H]1NC(C)=O` the same measures were 0.59 µM, 0.38 µM, 0.3 µM, 1.52 µM and 0.77 µM.
On to `CCC(CC)O[C@@H]1C=C(C(=O)O)C[C@H](NCc2ccc(C#Cc3ccccc3)cc2)[C@H]1NC(C)=O`, for which the IC50 in assay [1] amounted to 17.8 µM; in assay [2] it was 3.67 µM; in assay [3], 9.9 µM; in assay [4], 12 µM; in assay [5] it was 27.6 µM.
For `CCC(CC)O[C@@H]1C=C(C(=O)O)C[C@H](NCc2ccc(NCc3ccc(F)cc3)cc2)[C@H]1NC(C)=O` the same measures were 0.86 µM, 0.96 µM, 0.48 µM, 2.11 µM and 1.07 µM.
Take `CCC(CC)O[C@@H]1C=C(C(=O)O)C[C@H](NCc2ccc(OCC3CCCCC3)cc2)[C@H]1NC(C)=O`: the IC50 turned out to be 13.5 µM in assay [1]; 7.08 µM in assay [2]; 8.4 µM in assay [3]; 10.5 µM in assay [4]; 19.6 µM in assay [5].
For `CCC(CC)O[C@@H]1C=C(C(=O)O)C[C@H](NCc2ccc(Oc3cccc(OC)c3)cc2)[C@H]1NC(C)=O` the same measures were 13.6 µM, 0.87 µM, 12.5 µM, 0.46 µM and 1.95 µM.
In the same order, the values of `CCC(CC)O[C@@H]1C=C(C(=O)O)C[C@H](NCc2ccc(Oc3ccccc3OC)cc2)[C@H]1NC(C)=O` are 16.3 µM, 0.86 µM, 24.3 µM, 0.92 µM and 2.2 µM.
For `CCC(CC)O[C@@H]1C=C(C(=O)O)C[C@H](NCc2ccc(OCc3ccc(C)cc3)cc2)[C@H]1NC(C)=O` the same measures were 36.4 µM, 0.73 µM, 27.1 µM, 0.73 µM and 1.45 µM.
`CCC(CC)O[C@@H]1C=C(C(=O)O)C[C@H](NCc2ccc(OCc3cccc(F)c3)cc2)[C@H]1NC(C)=O`: the IC50 in assay [1] came out at 33.3 µM; in assay [2] it was 0.71 µM; in assay [3] it was 18.8 µM; in assay [4], 0.58 µM; in assay [5], 0.69 µM.
Turning to `CCC(CC)O[C@@H]1C=C(C(=O)O)C[C@H](NCc2ccc(OCc3ccc(SC)cc3)cc2)[C@H]1NC(C)=O`, the IC50 was found to be 11.6 µM in assay [1]; 1.48 µM in assay [2]; 13.7 µM in assay [3]; 0.98 µM in assay [4]; 4.02 µM in assay [5].
For `CCC(CC)O[C@@H]1C=C(C(=O)O)C[C@H](NCc2ccc(OCc3cccc(B4OC(C)(C)C(C)(C)O4)c3)cc2)[C@H]1NC(C)=O` the same measures were 13.4 µM, 0.16 µM, greater than 40 µM, 0.098 µM and 0.55 µM.
In the same order, the values of `CCC(CC)O[C@@H]1C=C(C(=O)O)C[C@H](NCc2ccc(OCc3ccc(C#N)cc3)cc2)[C@H]1NC(C)=O` are 13.7 µM, 0.41 µM, 20.9 µM, 0.42 µM and 0.41 µM.
For `CCC(CC)O[C@@H]1C=C(C(=O)O)C[C@H](NCc2ccc(Oc3ccc(F)cc3)cc2)[C@H]1NC(C)=O` the same measures were 12.7 µM, 2.04 µM, 11.6 µM, 0.78 µM and 3.41 µM.
Regarding `CCC(CC)O[C@@H]1C=C(C(=O)O)C[C@H](NCc2ccc(OCc3ccc(F)cc3)cc2)[C@H]1NC(C)=O`, the concentration for half-maximal inhibition (IC50) in assay [1] came out at 22.6 µM; in assay [2], 1.29 µM; in assay [3], 14.9 µM; in assay [4], 0.46 µM; in assay [5] it was 0.65 µM.
On to `CCC(CC)O[C@@H]1C=C(C(=O)O)C[C@H](NCc2ccc(Oc3ccccc3C)cc2)[C@H]1NC(C)=O`, for which the IC50 in assay [1] was 33.7 µM; in assay [2], 0.45 µM; in assay [3] it was 34.4 µM; in assay [4], 0.31 µM; in assay [5], 0.57 µM.
With `CCC(CC)O[C@@H]1C=C(C(=O)O)C[C@H](NCc2ccc(O[C@H](C)c3ccccc3)cc2)[C@H]1NC(C)=O`, the IC50 was 11.9 µM in assay [1]; 8.02 µM in assay [2]; 56.1 µM in assay [3]; 3.67 µM in assay [4]; 19.6 µM in assay [5].
With `CCC(CC)O[C@@H]1C=C(C(=O)O)C[C@H](NCc2ccc(OCc3ccccc3C)cc2)[C@H]1NC(C)=O`, the IC50 was 38.6 µM in assay [1]; 1.23 µM in assay [2]; greater than 100 µM in assay [3]; 1.88 µM in assay [4]; 4.73 µM in assay [5].
For `CCC(CC)O[C@@H]1C=C(C(=O)O)C[C@H](NCc2ccc(OCc3ccccc3OC)cc2)[C@H]1NC(C)=O` the same measures were 26.6 µM, 7.64 µM, 38.7 µM, 1.31 µM and 13.5 µM.
`CCC(CC)O[C@@H]1C=C(C(=O)O)C[C@H](NCc2ccc(SCc3ccc(OC)cc3)cc2)[C@H]1NC(C)=O`: the IC50 in assay [1] worked out at 49.6 µM; in assay [2], 0.74 µM; in assay [3], 24.7 µM; in assay [4], 0.78 µM; in assay [5] it was 1.7 µM.
Turning to `CCC(CC)O[C@@H]1C=C(C(=O)O)C[C@H](NCc2ccc(OCc3ccccc3C#N)cc2)[C@H]1NC(C)=O`, the IC50 was 61.1 µM in assay [1]; 22.9 µM in assay [2]; greater than 100 µM in assay [3]; 1.37 µM in assay [4]; 21.4 µM in assay [5].
With `CCC(CC)O[C@@H]1C=C(C(=O)O)C[C@H](NCc2ccc(OCC3CC3)cc2)[C@H]1NC(C)=O`, the IC50 in assay [1] was 71.2 µM; in assay [2], 10.1 µM; in assay [3], greater than 100 µM; in assay [4], 1.68 µM; in assay [5] it was 33 µM.
Take `CCC(CC)O[C@@H]1C=C(C(=O)O)C[C@H](NCc2ccc(Oc3cccc(C)c3)cc2)[C@H]1NC(C)=O`: the IC50 in assay [1] amounted to 12.8 µM; in assay [2] it was 0.99 µM; in assay [3], 9.21 µM; in assay [4] it was 0.49 µM; in assay [5], 1.68 µM.
In the same order, the values of `CCC(CC)O[C@@H]1C=C(C(=O)O)C[C@H](NCc2ccc(O[C@@H](C)c3ccccc3)cc2)[C@H]1NC(C)=O` are 21 µM, 12.2 µM, greater than 100 µM, 7.12 µM and 23.4 µM.
Turning to `CCC(CC)O[C@@H]1C=C(C(=O)O)C[C@H](NCc2ccc(Oc3cccc(F)c3)cc2)[C@H]1NC(C)=O`, the IC50 in assay [1] came to 12.8 µM; in assay [2] it was 1.44 µM; in assay [3], 12.4 µM; in assay [4], 0.91 µM; in assay [5], 2.26 µM.
Regarding `CCC(CC)O[C@@H]1C=C(C(=O)O)C[C@H](NCc2ccc(Oc3ccccc3F)cc2)[C@H]1NC(C)=O`, the IC50 in assay [1] came out at 21.7 µM; in assay [2], 0.49 µM; in assay [3], 14.4 µM; in assay [4], 0.26 µM; in assay [5], 0.55 µM.
As for `CCC(CC)O[C@@H]1C=C(C(=O)O)C[C@H](NCc2ccc(OCC3CCC3)cc2)[C@H]1NC(C)=O`, the IC50 in assay [1] is 58.2 µM; in assay [2] it was 7.77 µM; in assay [3] it was 84.2 µM; in assay [4], 6 µM; in assay [5], 47.5 µM.
For `CCC(CC)O[C@@H]1C=C(C(=O)O)C[C@H](NCc2ccc(OCc3ccccc3F)cc2)[C@H]1NC(C)=O` the same measures were 46.6 µM, 0.48 µM, 44.5 µM, 0.3 µM and 0.48 µM.
For `CCC(CC)O[C@@H]1C=C(C(=O)O)C[C@H](NCc2ccc(Oc3ccc(OC)cc3)cc2)[C@H]1NC(C)=O` the same measures were 28.5 µM, 12.2 µM, 24.4 µM, 1.13 µM and 14.3 µM.
In the same order, the values of `CCC(CC)O[C@@H]1C=C(C(=O)O)C[C@H](NCc2ccc(SCc3ccccc3)cc2)[C@H]1NC(C)=O` are 26.1 µM, 0.45 µM, 22.3 µM, 0.37 µM and 0.64 µM.
